Target: T1, Choline trimethylamine-lyase (UniProt A0AAJ0YC41)
T1 sequence (A0AAJ0YC41 whole entry): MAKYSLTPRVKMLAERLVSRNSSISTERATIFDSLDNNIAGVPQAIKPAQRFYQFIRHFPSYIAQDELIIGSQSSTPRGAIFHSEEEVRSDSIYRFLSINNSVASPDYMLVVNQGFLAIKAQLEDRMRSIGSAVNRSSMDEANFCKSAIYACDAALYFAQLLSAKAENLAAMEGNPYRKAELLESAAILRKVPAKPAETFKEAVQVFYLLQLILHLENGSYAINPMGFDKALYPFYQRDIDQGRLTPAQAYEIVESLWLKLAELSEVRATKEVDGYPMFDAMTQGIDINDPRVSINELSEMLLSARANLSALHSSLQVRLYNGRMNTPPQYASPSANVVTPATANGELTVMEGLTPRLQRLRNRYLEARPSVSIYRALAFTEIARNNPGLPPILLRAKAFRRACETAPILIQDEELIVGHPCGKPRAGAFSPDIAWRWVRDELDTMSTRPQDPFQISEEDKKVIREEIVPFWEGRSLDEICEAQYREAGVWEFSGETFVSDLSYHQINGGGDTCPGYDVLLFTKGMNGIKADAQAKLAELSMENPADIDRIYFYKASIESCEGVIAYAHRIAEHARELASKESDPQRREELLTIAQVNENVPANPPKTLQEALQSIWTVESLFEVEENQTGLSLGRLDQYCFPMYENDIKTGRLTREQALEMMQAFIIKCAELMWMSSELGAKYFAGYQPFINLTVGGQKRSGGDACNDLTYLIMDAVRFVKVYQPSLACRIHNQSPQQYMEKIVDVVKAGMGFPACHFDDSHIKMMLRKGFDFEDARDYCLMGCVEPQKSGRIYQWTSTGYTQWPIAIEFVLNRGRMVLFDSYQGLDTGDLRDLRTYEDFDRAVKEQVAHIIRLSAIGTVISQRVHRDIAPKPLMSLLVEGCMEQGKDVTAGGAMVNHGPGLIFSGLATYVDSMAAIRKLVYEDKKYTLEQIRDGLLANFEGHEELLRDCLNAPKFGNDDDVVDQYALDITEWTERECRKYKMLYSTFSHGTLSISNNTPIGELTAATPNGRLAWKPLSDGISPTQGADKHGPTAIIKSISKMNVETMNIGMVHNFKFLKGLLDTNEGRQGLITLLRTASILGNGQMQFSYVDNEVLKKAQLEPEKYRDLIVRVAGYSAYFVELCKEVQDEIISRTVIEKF
Assay: In Vitro TMA Inhibition
Experimental: Choline TMA lyase enzymatic activity assays were conducted to measure the conversion of isotope-labeled d9-choline to d9-TMA. Upon thawing an aliquot of frozen clarified lysate on ice and gentle mixing, clarified lysate was diluted to 5 mg/mL in lysis buffer and the necessary co-factors were added (final concentration: 1 mM SAM, 10 mM NaDT, and 2 mM NADH). Potential inhibitor compounds (typically dissolved in H2O) were serially diluted (10-fold) and added to individual reaction mixtures (done in triplicate). The mixture was then allowed to incubate for at least 15 minutes at 22° C. before the addition of substrate (300 μM final d9-choline) to initiate the reaction, which was carried out for 2 hours at room temperature (22° C.) in the dark in gas tight sealed reaction vials. The reactions were quenched with the addition of 200 μL of 1 M NaOH and 0.5 μM of the internal standard ([13C3 15N1]TMA), vortexing and placement in ice. d9-TMA production was quantified using mass spectrometry by measuring the peak area ratio of the precursor to product ion transition of d9-TMA (m/z 69→49) to the internal standard [13C3 15N1]TMA (m/z 64→47).

Compound: C[N+](C)(CF)CCOC(=O)c1ccc(O)cc1 [US20260001833, Compound 3]
- IC50: 3.6 µM

Reference: BindingDB's records for patent US20260001833 (The Cleveland Clinic Foundation, 2026)
